Measured values: patent publication US6479460B1, “Synthetic peptides and pseudopeptides having osteogenic activity and pharmaceutical compositions containing the same” (Yissum Research Development Company of the Hebrew …, priority 1996, dated 2002)
“Also recorded” adds a separate entry of the source. Where no end group is shown, it is not given here. [ ]: non-standard residue; d: D form. The star is where a group is joined. Bpa = N[C@@H](Cc1ccc(C(=O)c2ccccc2)cc1)C(=O)O; Tyr(3-I) = N[C@@H](Cc1ccc(O)c(I)c1)C(=O)O; Desaminotyrosyl = O=C(CCc1ccc(O)cc1)*; NMeY = CN[C@@H](Cc1ccc(O)cc1)C(=O)O; GABA = NCCCC(=O)O

Experiments:
[1] = tested on: osteoblastic MC3T3 E1 cells; experiment: Proliferation assay, osteoblastic MC3T3 E1 cells; assay type: cell-based; conditions: for analog concentration evoking the peak inhibitory response / anti-proliferative activity (in words): absence of exogenous OGP, FIG. 8; for Relative in vitro potency (95% confidence limit) MC3T3 E1 cells: analog concentration 10^−13M, mean cell number relative to positive control OGP(1-14) = 1.00
Description: (§1) Some of the analogs were subjected to a dose response analysis.

[2] = tested on: fibroblastic NIH 3T3 cells; experiment: Proliferation assay, fibroblastic NIH 3T3 cells; assay type: cell-based; conditions: analog concentration 10^−11M; mean cell number relative to positive control OGP(1-14) = 1.00
Description: as §1

[3] = tested on: osteoblastic MC3T3 E1 cells; experiment: Inhibition of stimulatory effect of optimal OGP dose on MC3T3 E1 cells (FIG. 7); assay type: cell-based; conditions: cultures treated with 10^−13M synthetic OGP(1-14) plus antagonist
Protocol: All other cultures were treated with 10^−13M synthetic OGP(1-14) (SEQ ID NO: 1) and the indicated dose of antagonist. Data are mean±SE obtained in three culture wells per condition.
(§2) The effect of OGP analogs on osteoblastic MC3T3 E1 and fibroblastic NIH 3T3 cell proliferation was measured as before [Bab, I., et al (1992) EMBO J. 11:1867]. Some of the analogs were subjected to a dose response analysis. Otherwise the analog concentration was 10^−13M and 10^−11M in the MC3T3 E1 and NIH3T3 cell cultures, respectively. The mean cell number in triplicate culture wells was expressed as percent of a positive control triplicate dosed with OGP(1-14) (SEQ ID NO: 1). Experiments testing one dose per cell line were repeated at least four times and the activity of individual analogs expressed as the mean of results and 95% confidence limit obtained in these repetitive experiments.

[4] = tested on: osteoblastic MC3T3 E1 and fibroblastic NIH 3T3 cells; experiment: Proliferation assay, text statements not split by cell line; assay type: cell-based; conditions: for OGP-like proliferative activity (in words): in vitro, compared to OGP(1-14) or parent analog
Protocol: as §2

ovariectomized mice = experiment: Osteogenic effect of OGP analogs in ovariectomized mice; assay type: in vivo, C57B1/6 mice; conditions: OVX mice, subcutaneous daily for six weeks, proximal tibial metaphysis, FIG. 5
Protocol: Thirty two female C57B1/6 mice weighing 25 gm underwent conventional bilateral ovariectomy (OVX). Additional eight control animals were subjected to sham OVX: the anterior abdominal wall was opened and the ovaries exposed but left intact. All animals were left untreated for 30 days. The OVX animals were then divided into four groups each consisting of eight mice. All animals were injected subcutaneously in the nape daily for six weeks with the following solutions: One group was given OGP(1-14) (SEQ ID NO: 1), 30 ng/day/mouse. A second group received OGP(10-14) (SEQ ID NO: 61), 10 ng/day/mouse. A third group was given desamino[Tyr^10]OGP(10-14) (SEQ ID NO: 4). All compounds were dissolved in phosphate buffered saline (PBS). An additional control OVX group was given the PBS solvent only. One day after termination of treatment the animals were killed and the tibial bones separated, fixed in phosphate buffered formalin and subjected to conventional decalcified histological processing. Sections through the midsagital region of the tibia were stained with Masson trichrome. Bone volume was determined in the secondary spongiosa of the proximal metaphysis in two sections 200-300 μm apart from each other in one tibia from each animal using an automated computerized image analyzer. The value for each animal was the mean reading from the two sections.

ovariectomized rats = experiment: Number of bone marrow derived osteoblastic colonies from ovariectomized rats; assay type: in vivo, Sabra rats; conditions: OVX rats, 100 ng/day/rat subcutaneous daily for eight weeks, FIG. 6
Protocol: Twenty five female Sabra rats weighing 250 g each were subjected to bilateral ovariectomy (OVX). Additional five control animals underwent sham OVX. All animals were left untreated for 30 days. Then the OVX animals were divided into five groups, each consisting of five rats. All animals were injected subcutaneously in the nape daily for eight weeks with following solutions: One group was given to OGP(10-14) (SEQ ID NO: 61), 100 ng/day/rat. A second group was given desamino[Tyr^10]OGP(10-14) (SEQ ID NO: 4), 100 ng/day/rat. A third group was given c(Tyr-Gly-Phe-Gly-Gly) (SEQ ID NO: 35), 100 ng/day/rat. The fourth group was given retro OGP ([…] (SEQ ID NO: 60), 300 ng/day/rat. All compounds were dissolved in PBS. An additional control OVX group was given the PBS solvent only. After termination of treatment the animals were killed and the femoral and tibial bone marrow from both posterior limbs was pooled and transferred to alpha minimal essential medium (αMEM). Bone marrow cell cultures were set in 35 mm dishes, 10 dishes per animal, as described previously [Rickard, D. J., et al (1994) Biology, 161:218]. The total number of fibroblastic colonies (CFU-f) formed was determined after three weeks in culture. Immediately after, the CFU-f cultures were stained for alkaline phosphates and co-stained for mineral with alizarin-red-S. The alizarin-red-S positive colonies were considered osteoblastic. Their frequency was expressed as their percentage of the total numbers of colonies. The value for each animal was calculated as the mean percentage obtained in the 10 dishes.

[5] = listed as [N(CH3)-Tyr^10]OGP(9-14)
[6] = listed as c[Tyr-Gly-Phe-Gly-Gly]

Substance | Relative in vitro potency (95% confidence limit) MC3T3 E1 cells [1] | Relative in vitro potency (95% confidence limit) NIH 3T3 cells [2] | OGP-like proliferative activity (in words) [4] | also measured
Leu-N(CH3)-CH(CH2C6H4(OH))-C(O)-Gly-Phe-Gly-Gly (L[NMeY]GFGG) [N(Me)-[Tyr^10]OGP(9-14)] | −0.34 | −0.32 | – | analog concentration evoking the peak inhibitory response [1]: 10^−13 M; anti-proliferative activity (in words) [1]: inhibit osteoblastic MC3T3 E1 cell proliferation dose dependently at low concentrations with reversal of this inhibition at high doses; anti-proliferative activity (in words) [1, 5]: anti-proliferative activity; inhibition of stimulation by optimal OGP dose / OGP antagonism (in words) [3]: highly potent OGP antagonist; inhibition of stimulation by optimal OGP dose / OGP antagonism (in words) [3, 5]: inhibitory effect at low doses
desamino Tyr-Gly-Phe-Gly-Gly ([Desaminotyrosyl]GFGG) [desamino[Tyr^10]OGP(10-14)] | 0.77 | 0.66 | – | retention of OGP-like activity ([4]; summary of Table 1): approximately 70%; reversal of trabecular bone loss (in words) (ovariectomized mice): either similar or superior to the parent oligopeptides; also recorded: either similar or superior to those of OGP(1-14); reversal of reduction in osteoprogenitor cells / osteoblastic colonies (in words) (ovariectomized rats): either similar or superior to the parent oligopeptides; also recorded: either similar or superior to those of OGP(1-14)
c(Tyr-Gly-Phe-Gly-Gly) (YGFGG; cyclic) | 0.79 | 1.12 | preserved or slightly improved its in vitro activity | OGP-like proliferative activity (in words) [4, 6]: preserves the OGP-like in vitro activity; reversal of reduction in osteoprogenitor cells / osteoblastic colonies (in words) (ovariectomized rats): improved over OGP(10-14); reversal of reduction in osteoprogenitor cells / osteoblastic colonies (in words) (ovariectomized rats; [6]): improved in vivo activity
Tyr-Gly-Phe-Gly-Asp (YGFGD) [[Asp^14]OGP(10-14)] | −0.39 | −0.28 | – | analog concentration evoking the peak inhibitory response [1]: 10^−13 M; anti-proliferative activity (in words) [1]: anti-proliferative activity; also recorded: inhibit osteoblastic MC3T3 E1 cell proliferation dose dependently at low concentrations with reversal of this inhibition at high doses; inhibition of stimulation by optimal OGP dose / OGP antagonism (in words) [3]: inhibitory effect at low doses
cyclo([dY]G[dF]GG) | 0.69 | 0.84 | retained a considerable level of proliferative activity | OGP-like proliferative activity (in words) ([4]; listed as c[D-Tyr-Gly-D-Phe-Gly-Gly]): considerable level of proliferative activity
Nα-Ac—OGP(12-14) (Ac-Phe-Gly-Gly) | 0.06 | 0.07 | essentially nil | –
Tyr-Gly-NH-CH(CH2C6H4(C(O)-C6H5))C(O)-Gly-Gly (YG[Bpa]GG) [[Bpa^12]OGP(10-14)] | 0.74 | 0.86 | only a minor effect on the OGP-like proliferative activity | –
Tyr(m-I)-Gly-NH-CH(CH2C6H4(C(O)C6H5))C(O)-Gly-Gly ([Tyr(3-I)]G[Bpa]GG) [[Tyr^10(m-I),BPA^12]OGP(10-14)] | 0.80 | 0.85 | remained unaltered | –
[Pro^11]OGP(10-14) (YPFGG) | 0.89 | 0.96 | – | OGP-like proliferative activity (in words) ([4]; listed as Table 5, analog 2): remained essentially unaltered
c(Gly-Gly-Phe-Gly-Tyr) (GGFGY; cyclic) | 0.95 | 1.02 | preserved or slightly improved its in vitro activity | –
[Ala^11]OGP(11-14) (AFGG) | 0.17 | 0.07 | essentially nil | –
c(γ-Abu-Tyr-Gly-Phe-Gly-Asp)-OH ([GABA]YGFGD-OH; lactam (positions not given here); also: cyclic, closure site not given here) | 0.13 | 0.07 | essentially nil | –
